The values below are quoted from earlier work in patent US20040175402A1, “Formulation” (priority 2001, published 2004).

For series [1], the system named is human breast cancer cells. To be noted: human breast cancer cells in vitro.

The structures appear in SMILES notation.

`C[C@]12CC[C@@H]3c4ccc(O)cc4C[C@@H](CCCCCCCCC[S+]([O-])CCCC(F)(F)C(F)(F)F)[C@H]3[C@@H]1CC[C@@H]2O` (stereo partly drawn) [Fulvestrant, 7α-[9-(4,4,5,5,5-Pentafluoropentylsulphinyl)nonyl]oestra-1,3-5(10)-triene-3,17β-diol]: the “block of uterotrophic action of oestradiol” value in the series with mice, with rats and in the series with monkeys was “blocks completely the uterotrophic action of oestradiol” throughout. Besides, the “block of growth stimulatory action of oestradiol” value in series [1] is “completely blocks the growth stimulatory action of oestradiol”.
